Reference: patent publication US20240168011A1, “CLEARANCE ASSAY” (Akershus Universitetssykehus HF, priority 2021, published 2024)
“Also recorded” adds a separate entry of the source. Counter-ions that a name gives are not always drawn.

What was measured:
THP-1 cells [1] = assay: Chase assay of Aβ catabolism, Simoa immunoassays of intracellular Aβ fragments (Example 1); type: cell-based; settings: TPA-differentiated THP-1; 100 ng/ml Abeta40 2 h, 4 hours chase; 100 nM Bafilomycin, 100 nM Rapamycin, 100 μM Neprilysin inhibitor, 200 nM BACE inhibitor, 1 μM IDE inhibitor; vs 4 hour chase
Description: To adjust for inter-day variations in measurements for the different experiments, values were normalized using the baseline condition as the reference for each day of experiments using the following formula: [(biomarker value/mean biomarker value)[…])].
Statistical analyses were carried out with one-way ANOVA models. If a significant (p<0.05) omnibus (F-test) ANOVA was shown, planned comparisons according to our hypotheses were carried out. This included a main comparison between the reference condition and experimental conditions (endolysosomal inhibitors and autophagosome activators). The Figures thus indicate within each bar the percentage change, and associated statistical significance (p-value) or lack thereof (n.s.), as compared to the reference condition (100%) (i.e. the main comparison). For some experiments (FIGS. 4, 5 and 7), additional comparisons between experimental conditions were conducted in accordance with hypotheses. Significant between-group differences for these comparisons are shown with horizontal bars with the associated statistical significance (p-value), or lack thereof (n.s.).
Aβ catabolism and detoxification, and the effect of example inhibitors and activators thereon, was measured using antibodies specific for intracellular Aβ mid-domain peptides, i.e. catabolism products. In particular, inhibition of endolysosomal activity is expected to reduce degradation and increase concentrations of species, here studied with Bafilomycin, which blocks V-ATPase and inhibits acidification of endolysosomes, thereby inhibiting endolysosomal enzyme activities. Addition of inhibitors of endolysosomal enzymes Neprilysin (Saido 2013) and Insulin Degradation Enzymes are expected to have similar effects (Jha, Jha et al. 2015, Sikanyika, Parkington et al. 2019), whereas BACE1 is involved both in Aβ generation and […] (Vassar, Kovacs et al. 2009, Liebsch, Kulic et al. 2019). Enhancing macroautophagy using Rapamycin is also expected to increase Aβ catabolism (FIG. 3; Spilman, Podlutskaya et al. 2010, Malik, Maddison et al. 2019)
Immunoassays were developed on the single molecule array (Simoa) platform (Quanterix, US) using proprietary antibodies directed against different epitopes of the amyloid β protein (Shown in FIG. 1; SEQ ID NOs: 3-5). The Aβx-40/42 assay used a 40-42 end-specific sheep monoclonal AB.4D7 (Bioventix plc, UK) as the capture antibody, and a sheep monoclonal AB.2A9 (Bioventix plc, UK) with a mid-domain epitope (SEQ ID NO: 7) as the detection antibody. The 40-42 end-specific antibody was raised against the epitope shown in SEQ ID NO: 5, and binds the C-terminal of both Aβ1-42 (SEQ ID NO: 1) and Aβ1-40 (SEQ ID NO: 2). The Aβ20-x assay used the same AB.4D7 antibody as the capture antibody, and the highly specific 20-cut point sheep monoclonal antibody, ABNT.2B8 (Bioventix plc, UK) as the detection antibody. For the Aβx-34 assay, AB.2A9 was used as the capture antibody and an anti-complex antibody, BVX.33420/H3 (Bioventix plc, UK), which preferentially binds a fragment having the C-terminal of SEQ ID NO: 6, was used as the detection antibody, ensuring mid-domain x-34 specificity.
Chase Assays THP-1 cells were differentiated toward macrophages by a 48 hour treatment with 100 nM TPA (12-O-tetradecanoylphorbol-13-acetate). Media was replaced with fresh medium with or without modulators of the autophagic/endolysosomal system: 100 nM Bafilomycin, 100 nM Rapamycin, 100 μM Neprilysin inhibitor, 200 nM BACE inhibitor, or 1 μM IDE inhibitor, or a triple combination of the enzyme inhibitors Neprilysin inhibitor, BACE inhibitor and IDE inhibitor. The cells were incubated for 1 hour before adding 100 ng/ml Abeta40 to the cells. Cells were further incubated for 2 hours before removing Abeta40 and a continued 4 hours chase with or without the respective modulators. Cells were washed before adding lysis buffer. Lysates were kept at −80° C. until analysis.

THP-1 cells [2] = assay: Chase assay with proposed AD interventions, Mesoscale immunoassay (Example 2); type: cell-based; settings: 16 hours DHA (100 μM) and/or NS1738 (10 μM); Aβ1-40 500 ng/ml; reference Aβ40 4 hour chase
Description: An immunoassay was set up on a Mesoscale platform using the same antibodies as, and a similar method to, Example 1. Cells were incubated overnight (16 hours) with DHA (100 μM) and/or NS1738 (10 μM). Aβ1-40 was added at a concentration of 500 ng/ml, and removed from the media before the 4 hour chase. DHA and NS1738 were removed from the media during the 4 hour chase.

THP-1 cells [3] = assay: Clearance assay on a background of LPS inflammatory activation, Mesoscale immunoassay (Example 4); type: cell-based; settings: with LPS, 16 h; Aβ1-40 2 h; 4 h chase; reference LPS+Aβ40 4 hour chase
Description: The immunoassay was set up on a Mesoscale platform. THP-1 cells were differentiated towards phagocytic monocytes/macrophages during a 48 h incubation with 12-O-tetra-decanoylphorbol-13-acetate (TPA). Media were replaced with fresh medium containing LPS alone or LPS together with DHA or NS1738 or combination of DHA and NS1738, for an overnight incubation (16 h). The marker protein (Aβ1-40) was added to the cells for an additional 2 h incubation. Media were replaced with fresh medium without any additives and the cells were further incubated for a 4 h chase period. The cells were kept cold, media removed, and the cells washed with cold PBS. Lysis buffer containing protease inhibitors and sodium dodecyl sulfate (SDS) was added to the cells. After lysis, the cells were scraped and transferred to tubes and kept in a −80° C. freezer. Lysates were sonicated and treated with DNase before analysis on the degradation assays.

[4] = system: cells in an innate immune model system; settings: DHA treatment of cells in an innate immune model system; cited from earlier work
[5] = target: Aβ20-34, mid-domain fragment of Aβ1-42 and Aβ1-40; assay: monocyte lysate pool + 12 pg/ml Aβ20-34 pre-incubated with the antibody, then Simoa Aβx-34 immunoassay
[6] = target: Aβ20-34, mid-domain fragment of Aβ1-42 and Aβ1-40; assay: monocyte lysate pool + 12 pg/ml Aβ20-34 pre-incubated with the antibody, then Simoa Aβx-34 immunoassay (untreated 13.8 pg/ml)

Row | Compound | intracellular Aβ20-x level (THP-1 cells [1]) | intracellular Aβx-34 level (THP-1 cells [1]) | intracellular Aβx-40/42 level (THP-1 cells [1]) | also measured
1 | NC1=N[C@@]2(c3cc(NC(=O)c4ccc(F)cn4)ccc3F)COC[C@H]2CS1 [BACE inhibitor, LY2886721] | increases | no effect | no effect | 
2 | CO/C1=C\C(C)=C\[C@@H](C)[C@@H](O)[C@@H](C)C/C(C)=C/C=C/[C@H](OC)[C@@H]([C@@H](C)[C@@H](O)[C@H](C)[C@@]2(O)C[C@@H](O)[C@H](C)[C@@H](C(C)C)O2)OC1=O [Bafilomycin, Bafilomycin A1] | significantly increases | non-significantly increases | significantly increases | 
3 | CC/C=C\C/C=C\C/C=C\C/C=C\C/C=C\C/C=C\CCC(=O)O [DHA, (4Z, 7Z, 10Z, 13Z, 16Z, 19Z)-4,7, 10, 13, 16, 19-docosahexaenoic acid] |  |  |  | intracellular Aβx-34 level (THP-1 cells [2]): reduces the amount; also recorded: decreased; intracellular Aβ20-x level (THP-1 cells [3]): continue to have an effect; intracellular Aβx-34 level (THP-1 cells [3]): continue to have an effect; intracellular Aβx-40 level (THP-1 cells [3]): continue to have an effect; Aβ1-42 phagocytosis and degradation [4]: increase
4 | NCCCC[C@@H]1NC(=O)/C=C/C(=O)N[C@H](C(N)=O)CCCCNC(=O)[C@@H](Cc2ccc(C(=O)c3ccccc3)cc2)NC(=O)[C@H](CC2CCCCC2)NC1=O [IDE inhibitor, 6bK] | increases | no effect | no effect | 
5 | O=C(Nc1cc(Cl)ccc1O)Nc1cc(C(F)(F)F)ccc1Cl [NS1738] |  |  |  | intracellular Aβx-34 level (THP-1 cells [2]): reduces the amount; also recorded: decreased; intracellular Aβ20-x level (THP-1 cells [3]): continue to have an effect; intracellular Aβx-34 level (THP-1 cells [3]): continue to have an effect; intracellular Aβx-40 level (THP-1 cells [3]): continue to have an effect
6 | CC(C)C[C@H](NP(=O)(O)O[C@@H]1O[C@@H](C)[C@H](O)[C@@H](O)[C@H]1O)C(=O)N[C@@H](Cc1c[nH]c2ccccc12)C(=O)O [Neprilysin inhibitor, Phosphoramidon disodium salt] | increases | unchanged | increases | 
7 | unspecific antibody LB509 |  |  |  | Percent of untreated [5]: 80%; concentration left after depletion [6]: 11.1 pg/mL
